Assays:
[1] = tested on: restraint stress induced diarrhea in rats; assay: Restraint stress induced diarrhea in rats; assay type: in vivo, rat
Procedure: Ramosetron hydrochloride, polycarbophil calcium (Astellas Pharma, Inc.) and 5-HT creatinine sulfate (Wako Pure Chemical Industries Ltd.) were used. Ramosetron was dissolved and diluted with distilled water. Polycarbophil was prepared by decalcification of polycarbophil calcium according to a reported method (Yamada et al., Iyakuhin Kenkyu 1997; 28: 23-32), and suspended and diluted with distilled water. In this experiment, ramosetron was used and expressed as its hydrochloride form. All the test substances were orally administered in a dose of 12 mL/kg. In combined administration of ramosetron and polycarbophil, a mixed solution of the two drugs was prepared and this was orally administered. Male Wistar rats (13 to 14-week age, Japan SLC Inc.) that had been fasted overnight were stressed by confinement in a restraint stress cage (KN-468, Natsume Seisakusho Co., Ltd.) (Hirata et al., Neurogastroenterol. Motil. 2008; 20: 557-565). The condition of the stool excreted within 3 hours after the initiation of the restraint stress was observed, and the occurrence of diarrhea was defined in case where the excreted stool condition was wet, amorphous and muddy stool. […] All the results were statistically analyzed using Statistical Analysis System ver. […] In this experiment, all the data were expressed as two significant figures. In the investigation using the diarrheal models, the incidence of diarrhea was calculated in each group, then the significance was evaluated according to the Fisher's exact test, and if desired, the significance level was corrected according to the Bonferroni's method for consideration of multiplicity (the case of P<0.05 or P<0.05/3 was given significance). In the experiments of spontaneous defecation, the mean value of total stool weight±SEM was calculated in every group, and the significance was evaluated according to Student's t-test (between two groups) or Dunnett's multiple comparison test (between multiple groups) (the case of P<0.05 was given significance).

[2] = tested on: 5-HT induced diarrhea in mice; assay: 5-HT induced diarrhea in mice; assay type: in vivo, mouse
Procedure: (§1) Ramosetron hydrochloride, polycarbophil calcium (Astellas Pharma, Inc.) and 5-HT creatinine sulfate (Wako Pure Chemical Industries Ltd.) were used. Ramosetron was dissolved and diluted with distilled water. Polycarbophil was prepared by decalcification of polycarbophil calcium according to a reported method (Yamada et al., Iyakuhin Kenkyu 1997; 28: 23-32), and suspended and diluted with distilled water. In this experiment, ramosetron was used and expressed as its hydrochloride form. All the test substances were orally administered in a dose of 12 mL/kg. In combined administration of ramosetron and polycarbophil, a mixed solution of the two drugs was prepared and this was orally administered.
Each test substance was orally administered to male ICR mice (9-week age, Clea Japan, Inc.), and after 2 hours, 5-HT (3 mg/kg) was intraperitoneally administered (Miyata et al., J. Pharmacol. Exp. Ther. 1992; 261: 297-303). The mice were put individually in separate cages, and the condition of the stool excreted within 3 hours after the 5-HT administration was observed. The occurrence of diarrhea was defined in case where the excreted stool condition was loose stool (wet pasty stool) or watery stool (amorphous muddy stool). […]
All the results were statistically analyzed using Statistical Analysis System ver. […] In this experiment, all the data were expressed as two significant figures. In the investigation using the diarrheal models, the incidence of diarrhea was calculated in each group, then the significance was evaluated according to the Fisher's exact test, and if desired, the significance level was corrected according to the Bonferroni's method for consideration of multiplicity (the case of P<0.05 or P<0.05/3 was given significance). In the experiments of spontaneous defecation, the mean value of total stool weight±SEM was calculated in every group, and the significance was evaluated according to Student's t-test (between two groups) or Dunnett's multiple comparison test (between multiple groups) (the case of P<0.05 was given significance).

[3] = tested on: spontaneous defecation in mice; assay: Spontaneous defecation in mice (total stool weight); assay type: in vivo, mouse; conditions: ddy mice
Procedure: as §1
In this experiment, male ddy mice (Nippon SLC, 5-week age) were used. Spontaneous defecation was measured individually in separate cages with a wire flooring under free drinking and free feeding condition. […]
The effect of single administration of ramosetron or polycarbophil alone was investigated with the following group composition, and the total stool weight in 2 hours after administration of each test substance was measured (n=10 in every group): Distilled water administration group (control group); ramosetron administration group (10, 30 and 100 μg/kg); polycarbophil administration group (100, 300 and 1,000 mg/kg). […]
All the results were statistically analyzed using Statistical Analysis System ver. […]

SMILES: Cn1cc(C(=O)[C@@H]2CCc3nc[nH]c3C2)c2ccccc21 [ramosetron, (−)-(R)-5-[(1-methyl-1H-indol-3-yl)carbonyl]-4,5,6,7-tetrahydro-1H-benzimidazole]
- incidence of diarrhea ([1]; ramosetron 0.3 μg/kg p.o. alone, 4 hours before restraint stress, stool within 3 hours, Wistar rats, n=24): 46%
- effect on restraint stress induced diarrhea ([1]; ramosetron 0.1 to 1 μg/kg p.o. alone, n=12): dose-dependently inhibited
- significance of inhibition of restraint stress induced diarrhea vs distilled water ([1]; ramosetron 0.3 and 1 μg/kg p.o. alone, n=12, Fisher's exact test): significant inhibitory effect
- incidence of diarrhea ([2]; ramosetron 30 μg/kg p.o. alone, 2 hours before 5-HT 3 mg/kg i.p., stool within 3 hours, ICR mice, n=24): 58%
- effect on 5-HT induced diarrhea ([2]; ramosetron 10 to 100 μg/kg p.o. alone, n=12): dose-dependently inhibited
- significance of inhibition of 5-HT induced diarrhea vs distilled water ([2]; ramosetron 30 and 100 μg/kg p.o. alone, n=12, Fisher's exact test): significant inhibitory effect
- total stool weight in 2 hours vs distilled water group ([3]; ramosetron 100 μg/kg p.o. single administration alone, n=10, Dunnett's test): significant reduction in the total stool weight
- effect on spontaneous defecation (total stool weight in 2 hours) ([3]; ramosetron 10 to 100 μg/kg p.o. single administration alone, n=10): dose-dependently inhibited spontaneous defecation

Reference: patent US20110158930A1, “METHOD FOR TREATMENT OF IRRITABLE BOWEL SYNDROME” (ASTELLAS PHARMA INC., priority 2008, published 2011)
